Data as given in patent publication EP4610269A1, “UROKINASE PLASMINOGEN ACTIVATOR SURFACE RECEPTOR (UPAR) LIGANDS FOR DIAGNOSTIC OR THERAPEUTIC USE” (3B Pharmaceuticals GmbH, priority 2024, dated 2025).
Read-outs that look alike come from different tables or passages of the source. Where a SMILES comes first, the peptide text is derived from it. Bridges are numbered along the chain shown (N, C = ends). [ ]: non-standard residue; d: D form. The star is where a group is joined. DOTA = O=C(O)CN1CCN(CC(=O)O)CCN(CC(=O)*)CCN(CC(=O)O)CC1; Hyp = O=C(O)[C@@H]1C[C@@H](O)CN1; hPhe = N[C@@H](CCc1ccccc1)C(=O)O; Cit = NC(=O)NCCC[C@H](N)C(=O)O; NMeOrn = CN[C@@H](CCCN)C(=O)O; NMeK = CN[C@@H](CCCCN)C(=O)O; NMeNle = CCCC[C@H](NC)C(=O)O; dOrn = NCCC[C@@H](N)C(=O)O; Nva = CCC[C@H](N)C(=O)O; Hexanoyl = CCCCCC(=O)*; Pentanoyl = CCCCC(=O)*; NEtG = CCNCC(=O)O

Assays:
[1] = target: T1, uPAR-expressing HEC-265 human endometrial adenocarcinoma cells (Homo sapiens, UniProt Q03405); experiment: Competitive FACS binding assay; conditions: pIC50 category of FACS binding
T1 construct: Cell surface uPAR-expressing HEC-265 human endometrial adenocarcinoma cells; host or cells: HEC-265
Procedure, shortened: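 HEC-265 cells incubated 1 h at 4 °C with 10 nM biotinylated uPAR peptide tracer plus increasing test compound, then stained with APC-streptavidin on ice. Median APC fluorescence by flow cytometry; 4PL fit gives pIC50.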

[2] = target: T2, human uPAR (uPAR-Fc) (Homo sapiens, UniProt Q03405); experiment: Surface plasmon resonance (SPR) assay, single cycle kinetics; assay type: binding; conditions: pKD category for uPAR SPR activity assay, uPAR-Fc on Protein A-Chip, 25°C, read-out: pKD CAT (converted)
T2 construct: comprising amino acids Leu23-Arg303 according to UniProt entry Q03405.1; purchased R&D Systems 10378-UK-100
Procedure, shortened: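 uPAR-Fc (Leu23-Arg303 extracellular domains, human IgG1 Fc) captured on Protein A chip to ~2000 RU; single-cycle kinetics at 25°C in HEPES running buffer pH 7.4 with 0.1% DMSO. KD from double-referenced sensorgrams fitted to 1:1 Langmuir model, reported as pKD.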

T2 sequence (Q03405 23-303): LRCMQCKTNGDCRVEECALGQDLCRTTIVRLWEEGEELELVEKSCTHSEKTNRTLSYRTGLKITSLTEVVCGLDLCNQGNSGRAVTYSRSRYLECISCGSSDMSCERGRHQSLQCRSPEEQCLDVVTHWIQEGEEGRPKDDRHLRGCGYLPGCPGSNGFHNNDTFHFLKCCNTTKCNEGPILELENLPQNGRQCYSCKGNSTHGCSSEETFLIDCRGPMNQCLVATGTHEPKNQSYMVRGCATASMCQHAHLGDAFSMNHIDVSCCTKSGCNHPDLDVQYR
T1 sequence (Q03405 23-335): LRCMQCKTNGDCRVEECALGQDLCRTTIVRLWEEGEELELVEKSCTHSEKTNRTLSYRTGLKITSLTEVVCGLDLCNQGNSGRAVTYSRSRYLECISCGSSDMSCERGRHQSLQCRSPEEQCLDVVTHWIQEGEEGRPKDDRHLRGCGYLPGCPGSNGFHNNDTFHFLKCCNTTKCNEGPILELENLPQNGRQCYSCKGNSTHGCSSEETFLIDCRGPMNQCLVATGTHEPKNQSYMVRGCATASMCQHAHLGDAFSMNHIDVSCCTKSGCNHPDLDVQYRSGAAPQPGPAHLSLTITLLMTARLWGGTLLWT

SMILES	IC50 [1]	Kd ([2]; single cycle kinetics)	Kd [2]
CCCCC(=O)N[C@H]1CSSC[C@@H](C(N)=O)NC(=O)[C@H](CCC)NC(=O)[C@H]([C@@H](C)CC)NC(=O)[C@@H](CCCN)NC(=O)[C@@H]2CCCN2C(=O)[C@H](Cc2ccccc2)NC(=O)[C@H](Cc2ccc(O)cc2)NC(=O)[C@H](CCC(N)=O)NC(=O)[C@H](CCCNC(=N)N)NC1=O [UPAR-438, Pent-[Cys-Arg-Gln-Tyr-Phe-Pro-orn-Ile-Nva-Cys]-NH2] (Pentanoyl-CRQYFP[dOrn]I[Nva]C-NH2; disulfide 1-10)	12.6 to 31.6 nM	1.58 to 10 nM	
CCCCC(=O)N[C@H]1CSSC[C@@H](C(N)=O)NC(=O)[C@H](CCC)NC(=O)[C@H]([C@@H](C)CC)NC(=O)[C@H](CCCCN)N(C)C(=O)[C@@H]2CCCN2C(=O)[C@H](Cc2ccccc2)NC(=O)[C@H](Cc2ccc(O)cc2)NC(=O)[C@H](CCCCNC(=O)CN2CCN(CC(=O)O)CCN(CC(=O)O)CCN(CC(=O)O)CC2)NC(=O)[C@H](CCCNC(N)=O)NC1=O [UPAR-173, Pent-[Cys-Cit-Lys(DOTA)-Tyr-Phe-Pro-Nmk-Ile-Nva-Cys]-NH2] (Pentanoyl-C[Cit]K(DOTA)YFP[NMeK]I[Nva]C-NH2; disulfide 1-10)	≥ 126 nM		> 100 nM
CCNCC(=O)N[C@H]1CSSC[C@@H](C(N)=O)NC(=O)[C@H](CC(C)C)NC(=O)[C@H]([C@@H](C)CC)NC(=O)[C@@H](C)NC(=O)[C@@H]2CCCN2C(=O)[C@H](Cc2ccccc2)NC(=O)[C@H](Cc2ccc(O)cc2)NC(=O)[C@H](CCC(N)=O)NC(=O)[C@H](CCCNC(N)=O)NC1=O [UPAR-462, H-NEtg-[Cys-Cit-Gln-Tyr-Phe-Pro-ala-Ile-Leu-Cys]-NH2] (H-[NEtG]C[Cit]QYFP[dA]ILC-NH2; disulfide 2-11)	39.8 to 100 nM	10 to 100 nM	
CCCCC(=O)N[C@H]1CSSC[C@@H](C(N)=O)NC(=O)[C@H](CCC)NC(=O)[C@H](CCc2ccccc2)NC(=O)[C@@H]2C[C@@H](O)CN2C(=O)[C@@H]2CCCN2C(=O)[C@H](Cc2ccccc2)NC(=O)[C@H](Cc2ccc(O)cc2)NC(=O)[C@H](CCC(N)=O)NC(=O)[C@H](CCCNC(=N)N)NC1=O [UPAR-461, Pent-[Cys-Arg-Gln-Tyr-Phe-Pro-Hyp-Hfe-Nva-Cys]-NH2] (Pentanoyl-CRQYFP[Hyp][hPhe][Nva]C-NH2; disulfide 1-10)	≤ 10 nM	< 1.58 nM	
CCCCC(=O)N[C@H]1CSSC[C@@H](C(N)=O)NC(=O)[C@H](CCC)NC(=O)[C@H]([C@@H](C)CC)NC(=O)[C@H](CCCN)N(C)C(=O)[C@@H]2CCCN2C(=O)[C@H](Cc2ccccc2)NC(=O)[C@H](Cc2ccc(O)cc2)NC(=O)[C@H](CCCCNC(=O)CN2CCN(CC(=O)O)CCN(CC(=O)O)CCN(CC(=O)O)CC2)NC(=O)[C@H](CCCNC(N)=O)NC1=O [UPAR-265, Pent-[Cys-Cit-Lys(DOTA)-Tyr-Phe-Pro-Nmo-Ile-Nva-Cys]-NH2] (Pentanoyl-C[Cit]K(DOTA)YFP[NMeOrn]I[Nva]C-NH2; disulfide 1-10)	39.8 to 100 nM		> 100 nM
CC[C@H](C)[C@@H]1NC(=O)[C@@H](C)NC(=O)[C@@H]2CCCN2C(=O)[C@H](Cc2ccccc2)NC(=O)[C@H](Cc2ccc(O)cc2)NC(=O)[C@H](CCCCNC(=O)CN2CCN(CC(=O)O)CCN(CC(=O)O)CCN(CC(=O)O)CC2)NC(=O)[C@H](CC(=O)O)NC(=O)[C@@H](NC(=O)[C@H](CC(C)C)NC(=O)[C@H](CC(=O)O)NC(C)=O)CSSC[C@@H](C(N)=O)NC(=O)[C@H](CC(C)C)NC1=O [UPAR-432, Ac-Asp-Leu-[Cys-Asp-Lys(DOTA)-Tyr-Phe-Pro-ala-Ile-Leu-Cys]-NH2] (Ac-DLCDK(DOTA)YFP[dA]ILC-NH2; disulfide 3-12)	12.6 to 31.6 nM	10 to 100 nM	
CCCCCC(=O)N[C@H](C(=O)N[C@@H](CC(C)C)C(=O)N[C@H]1CSSC[C@@H](C(N)=O)NC(=O)[C@H](CC(C)C)NC(=O)[C@H]([C@@H](C)CC)NC(=O)[C@H](C)NC(=O)[C@@H]2CCCN2C(=O)[C@H](Cc2ccccc2)NC(=O)[C@H](Cc2ccc(O)cc2)NC(=O)[C@H](Cc2ccc(O)cc2)NC(=O)[C@H](CCC(=O)O)NC1=O)[C@@H](C)O [UPAR-143, Hex-Thr-Leu-[Cys-Glu-Tyr-Tyr-Phe-Pro-Ala-Ile-Leu-Cys]-NH2] (Hexanoyl-TLCEYYFPAILC-NH2; disulfide 3-12)	≤ 10 nM		< 1.58 nM
CCCCC(=O)N[C@H]1CSSC[C@@H](C(N)=O)NC(=O)[C@H](CCC)NC(=O)[C@H]([C@@H](C)CC)NC(=O)[C@@H]2C[C@@H](O)CN2C(=O)[C@H](CCCC)N(C)C(=O)[C@H](Cc2ccccc2)NC(=O)[C@H](Cc2ccc(O)cc2)NC(=O)[C@H](CCC(N)=O)NC(=O)[C@H](CCCNC(=N)N)NC1=O [UPAR-337, Pent-[Cys-Arg-Gln-Tyr-Phe-Nmb-Hyp-Ile-Nva-Cys]-NH2] (Pentanoyl-CRQYF[NMeNle][Hyp]I[Nva]C-NH2; disulfide 1-10)	≥ 126 nM		< 1.58 nM
